Results taken from patent US11780893B2, “Kv1.3 blockers” (Zealand Pharma A/S, priority 2019, dated 2023).
Read-outs that look alike come from different tables or passages of the source. Bridge positions count the residues as written; N and C are the ends. Square brackets hold non-standard residues; d marks the D form. Peptide text beside a SMILES is read from it. Nle = CCCC[C@H](N)C(=O)O

Legend:
[1] = target: T1, human Kv1.3 voltage-gated K+ channel (Homo sapiens, UniProt P22001); test: cell-based; details: inhibition of thallium flux, CHO-DUKX cells with human Kv1.3; read-out: IC50
T1 construct: host or cells: CHO-DUKX

Kv1.3 = target: T2, Kv1.3 (Homo sapiens, UniProt P22001); test: cell-based; details: CHO cells, whole-cell patch clamp; read-out: Potency IC50 (nM) Kv1.3
T2 construct: expressed in transfected cells; host or cells: Chinese Hamster Ovary (CHO)

Rat whole blood = Rat whole blood (Rattus norvegicus, UniProt P15384)
[2] = inhibition of IL-17A release, thapsigargin, 24 Hr, at least 2 replicates

Rat whole blood, sequence (P15384 whole entry): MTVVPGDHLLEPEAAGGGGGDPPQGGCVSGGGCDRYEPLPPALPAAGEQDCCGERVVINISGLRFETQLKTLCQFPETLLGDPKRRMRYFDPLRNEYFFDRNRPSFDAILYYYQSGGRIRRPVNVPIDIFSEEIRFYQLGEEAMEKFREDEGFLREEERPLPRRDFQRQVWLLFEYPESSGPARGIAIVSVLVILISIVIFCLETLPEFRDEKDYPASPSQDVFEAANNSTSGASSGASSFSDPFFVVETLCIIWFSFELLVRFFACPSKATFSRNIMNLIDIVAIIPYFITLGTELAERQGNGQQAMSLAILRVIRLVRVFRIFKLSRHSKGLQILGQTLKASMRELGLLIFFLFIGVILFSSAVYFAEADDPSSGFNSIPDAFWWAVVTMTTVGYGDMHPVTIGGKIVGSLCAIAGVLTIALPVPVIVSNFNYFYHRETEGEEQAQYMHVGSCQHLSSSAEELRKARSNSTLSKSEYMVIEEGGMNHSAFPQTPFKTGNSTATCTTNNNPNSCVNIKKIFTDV
T1 sequence (P22001 whole entry): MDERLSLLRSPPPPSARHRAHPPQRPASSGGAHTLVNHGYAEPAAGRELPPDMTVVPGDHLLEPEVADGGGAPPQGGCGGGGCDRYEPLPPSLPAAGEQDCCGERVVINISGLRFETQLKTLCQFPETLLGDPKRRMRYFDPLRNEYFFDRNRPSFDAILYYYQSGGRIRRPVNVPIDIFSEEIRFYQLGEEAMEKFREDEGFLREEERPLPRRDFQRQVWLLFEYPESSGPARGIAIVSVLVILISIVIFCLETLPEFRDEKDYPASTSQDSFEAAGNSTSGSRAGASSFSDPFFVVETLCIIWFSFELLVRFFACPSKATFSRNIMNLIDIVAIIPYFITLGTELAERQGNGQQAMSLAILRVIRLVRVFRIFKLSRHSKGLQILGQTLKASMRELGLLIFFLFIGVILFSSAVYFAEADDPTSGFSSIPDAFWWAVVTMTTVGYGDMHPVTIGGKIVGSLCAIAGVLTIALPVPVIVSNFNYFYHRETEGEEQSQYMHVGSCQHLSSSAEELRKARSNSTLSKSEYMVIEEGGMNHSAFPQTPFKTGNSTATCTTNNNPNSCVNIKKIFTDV
T2 sequence (P22001 whole entry): as above

SMILES	IC50 [1] [nM]	IC50 (Kv1.3) [nM]	IC50 (Rat whole blood) [nM]	IC50 (Rat whole blood; [2]) [nM]
CCCC[C@H](NC(=O)[C@H](CC(=O)O)NC(=O)[C@H](CCCC)NC(=O)[C@@H](N)CC(N)=O)C(=O)N[C@@H](CCCNC(=N)N)C(=O)N[C@H]1CSSC[C@@H]2NC(=O)[C@H](CCCCN)NC(=O)CNC(=O)[C@H](Cc3ccccc3)NC(=O)[C@H]([C@@H](C)CC)NC(=O)[C@H](CO)NC(=O)CNC(=O)[C@H]([C@@H](C)CC)NC(=O)[C@H](C)NC(=O)[C@H](CCCCN)NC(=O)[C@H](CC(C)C)NC(=O)[C@@H]3CSSC[C@@H](C(=O)N[C@@H](Cc4ccc(O)cc4)C(=O)N4CCC[C@H]4C(=O)N[C@@H](CCCNC(=N)N)C(N)=O)NC(=O)[C@H](CCCCN)NC(=O)[C@H](CSSC[C@H](NC(=O)[C@H](CCC(=O)O)NC(=O)[C@H](C(C)C)NC(=O)[C@H](CO)NC(=O)[C@H](C)NC(=O)[C@H](CO)NC1=O)C(=O)N[C@@H](CCCCN)C(=O)N[C@@H](CCC(N)=O)C(=O)N[C@@H](CCCCN)C(=O)N3)NC(=O)[C@H](CCCCN)NC(=O)[C@H](CCCCN)NC(=O)[C@H](CC(N)=O)NC(=O)[C@H](CCSC)NC2=O [Compound 39] (H-N[Nle]D[Nle]RCSASVECKQKCLKAIGSIFGKCMNKKCKCYPR-NH2; disulfide 6-27, 12-32, 16-34)	0.11	0.15		
CC[C@H](C)[C@@H]1NC(=O)[C@H](C)NC(=O)[C@H](CCCCN)NC(=O)[C@H](Cc2ccc(O)cc2)NC(=O)[C@@H]2CSSC[C@@H](C(=O)N[C@@H](Cc3ccc(O)cc3)C(=O)N3CCC[C@H]3C(=O)N[C@@H](CCCNC(=N)N)C(N)=O)NC(=O)[C@H](CCCCN)NC(=O)[C@@H]3CSSC[C@H](NC(=O)[C@H](CCC(=O)O)NC(=O)[C@H](C(C)C)NC(=O)[C@H](CO)NC(=O)[C@H](C)NC(=O)[C@H](CO)NC(=O)[C@@H](NC(=O)[C@H](CCCNC(=N)N)NC(=O)[C@H](CCSC)NC(=O)[C@H](CC(=O)O)NC(=O)[C@H](CCSC)NC(=O)[C@@H](N)CC(N)=O)CSSC[C@H](NC(=O)[C@H](CCCCN)NC(=O)CNC(=O)[C@H](Cc4ccccc4)NC(=O)[C@H]([C@@H](C)CC)NC(=O)[C@H](CO)NC(=O)CNC1=O)C(=O)N[C@@H](CCSC)C(=O)N[C@@H](CC(N)=O)C(=O)N[C@@H](CCCCN)C(=O)N[C@@H](CCCCN)C(=O)N3)C(=O)N[C@@H](CCCCN)C(=O)N[C@@H](CCC(N)=O)C(=O)N[C@@H](CCCCN)C(=O)N2 [Compound 50] (H-NMDMRCSASVECKQKCYKAIGSIFGKCMNKKCKCYPR-NH2; disulfide 6-27, 12-32, 16-34)	0.16	0.27		
CC[C@H](C)[C@@H]1NC(=O)[C@H](C)NC(=O)[C@H](CCCCN)NC(=O)[C@H](CCCNC(=N)N)NC(=O)[C@@H]2CSSC[C@@H](C(=O)N[C@@H](Cc3ccc(O)cc3)C(=O)N3CCC[C@H]3C(=O)N[C@@H](CCCNC(=N)N)C(N)=O)NC(=O)[C@H](CCCCN)NC(=O)[C@@H]3CSSC[C@H](NC(=O)[C@H](CCC(=O)O)NC(=O)[C@H](C(C)C)NC(=O)[C@H](CO)NC(=O)[C@H](C)NC(=O)[C@H](CO)NC(=O)[C@@H](NC(=O)[C@H](CCCNC(=N)N)NC(=O)[C@H](CCSC)NC(=O)[C@H](CC(=O)O)NC(=O)[C@H](CCSC)NC(=O)[C@@H](N)CC(N)=O)CSSC[C@H](NC(=O)[C@H](CCCCN)NC(=O)CNC(=O)[C@H](Cc4ccccc4)NC(=O)[C@H]([C@@H](C)CC)NC(=O)[C@H](CO)NC(=O)CNC1=O)C(=O)N[C@@H](CCSC)C(=O)N[C@@H](CC(N)=O)C(=O)N[C@@H](CCCCN)C(=O)N[C@@H](CCCCN)C(=O)N3)C(=O)N[C@@H](CCCCN)C(=O)N[C@@H](CCC(N)=O)C(=O)N[C@@H](CCCCN)C(=O)N2 [Compound 51] (H-NMDMRCSASVECKQKCRKAIGSIFGKCMNKKCKCYPR-NH2; disulfide 6-27, 12-32, 16-34)	0.11	0.25		
CC[C@H](C)[C@@H]1NC(=O)[C@H](Cc2ccc(O)cc2)NC(=O)[C@H](CCCCN)NC(=O)[C@H](CC(C)C)NC(=O)[C@@H]2CSSC[C@@H](C(=O)N[C@@H](Cc3ccc(O)cc3)C(=O)N3CCC[C@H]3C(=O)N[C@@H](CCCNC(=N)N)C(N)=O)NC(=O)[C@H](CCCCN)NC(=O)[C@@H]3CSSC[C@H](NC(=O)[C@H](CCC(=O)O)NC(=O)[C@H](C(C)C)NC(=O)[C@H](CO)NC(=O)[C@H](C)NC(=O)[C@H](CO)NC(=O)[C@@H](NC(=O)[C@H](CCCNC(=N)N)NC(=O)[C@H](CCSC)NC(=O)[C@H](CC(=O)O)NC(=O)[C@H](CCSC)NC(=O)[C@@H](N)CC(N)=O)CSSC[C@H](NC(=O)[C@H](CCCCN)NC(=O)CNC(=O)[C@H](Cc4ccccc4)NC(=O)[C@H]([C@@H](C)CC)NC(=O)[C@H](CO)NC(=O)CNC1=O)C(=O)N[C@@H](CCSC)C(=O)N[C@@H](CC(N)=O)C(=O)N[C@@H](CCCCN)C(=O)N[C@@H](CCCCN)C(=O)N3)C(=O)N[C@@H](CCCCN)C(=O)N[C@@H](CCC(N)=O)C(=O)N[C@@H](CCCCN)C(=O)N2 [Compound 55] (H-NMDMRCSASVECKQKCLKYIGSIFGKCMNKKCKCYPR-NH2; disulfide 6-27, 12-32, 16-34)	0.12	0.12		
CCCC[C@H](NC(=O)[C@@H]1CCCN1)C(=O)N[C@@H](CC(=O)O)C(=O)N[C@@H](CCCC)C(=O)N[C@@H](CCCNC(=N)N)C(=O)N[C@H]1CSSC[C@@H]2NC(=O)[C@H](CCCCN)NC(=O)CNC(=O)[C@H](Cc3ccccc3)NC(=O)[C@H]([C@@H](C)CC)NC(=O)[C@H](CO)NC(=O)CNC(=O)[C@H]([C@@H](C)CC)NC(=O)[C@H](C)NC(=O)[C@H](C)NC(=O)[C@H](CC(C)C)NC(=O)[C@@H]3CSSC[C@@H](C(=O)N[C@@H](Cc4ccc(O)cc4)C(=O)N4CCC[C@H]4C(=O)N[C@@H](CCCNC(=N)N)C(=O)O)NC(=O)[C@H](CCCCN)NC(=O)[C@H](CSSC[C@H](NC(=O)[C@H](CCC(=O)O)NC(=O)[C@H](C(C)C)NC(=O)[C@H](CO)NC(=O)[C@H](C)NC(=O)[C@H](CO)NC1=O)C(=O)N[C@@H](C)C(=O)N[C@@H](CCC(N)=O)C(=O)N[C@@H](CCCCN)C(=O)N3)NC(=O)[C@H](CCCCN)NC(=O)[C@H](CCCCN)NC(=O)[C@H](CC(N)=O)NC(=O)[C@H](CCSC)NC2=O [Compound 102] (H-P[Nle]D[Nle]RCSASVECAQKCLAAIGSIFGKCMNKKCKCYPR-OH; disulfide 6-27, 12-32, 16-34)	0.45		≤ 1	0.32
CCCC[C@@H]1NC(=O)[C@@H]2CSSC[C@H](NC(=O)[C@H](CCCNC(=N)N)NC(=O)[C@@H](N)CC(C)C)C(=O)N[C@@H](CO)C(=O)N[C@@H](C)C(=O)N[C@@H](CO)C(=O)N[C@@H](C(C)C)C(=O)N[C@@H](CCC(=O)O)C(=O)N[C@H]3CSSC[C@H](NC(=O)[C@H](CCCCN)NC(=O)[C@H](CCCCN)NC(=O)[C@H](CC(N)=O)NC1=O)C(=O)N[C@@H](CCCCN)C(=O)N[C@H](C(=O)N[C@@H](Cc1ccc(O)cc1)C(=O)N1CCC[C@H]1C(=O)N[C@@H](CCCNC(=N)N)C(=O)O)CSSC[C@H](NC(=O)[C@H](CCCCN)NC(=O)[C@H](CCC(N)=O)NC(=O)[C@H](CCCCN)NC3=O)C(=O)N[C@@H](CC(C)C)C(=O)N[C@@H](CCCCN)C(=O)N[C@@H](C)C(=O)N[C@@H]([C@@H](C)CC)C(=O)NCC(=O)N[C@@H](CO)C(=O)N[C@@H]([C@@H](C)CC)C(=O)N[C@@H](Cc1ccccc1)C(=O)NCC(=O)N[C@@H](CCCCN)C(=O)N2 [Compound 114] (H-LRCSASVECKQKCLKAIGSIFGKC[Nle]NKKCKCYPR-OH; disulfide 3-24, 9-29, 13-31)	0.39			2.1
CCCC[C@@H]1NC(=O)[C@@H]2CSSC[C@H](NC(=O)[C@H](CCCNC(=N)N)NC(=O)[C@H](CC(C)C)NC(C)=O)C(=O)N[C@@H](CO)C(=O)N[C@@H](C)C(=O)N[C@@H](CO)C(=O)N[C@@H](C(C)C)C(=O)N[C@@H](CCC(=O)O)C(=O)N[C@H]3CSSC[C@H](NC(=O)[C@H](CCCCN)NC(=O)[C@H](CCCCN)NC(=O)[C@H](CC(N)=O)NC1=O)C(=O)N[C@@H](CCCCN)C(=O)N[C@H](C(=O)N[C@@H](Cc1ccc(O)cc1)C(=O)N1CCC[C@H]1C(=O)N[C@@H](CCCNC(=N)N)C(=O)O)CSSC[C@H](NC(=O)[C@H](CCCCN)NC(=O)[C@H](CCC(N)=O)NC(=O)[C@H](CCCCN)NC3=O)C(=O)N[C@@H](CC(C)C)C(=O)N[C@@H](C)C(=O)N[C@@H](C)C(=O)N[C@@H]([C@@H](C)CC)C(=O)NCC(=O)N[C@@H](CO)C(=O)N[C@@H]([C@@H](C)CC)C(=O)N[C@@H](Cc1ccccc1)C(=O)NCC(=O)N[C@@H](CCCCN)C(=O)N2 [Compound 115] (Ac-LRCSASVECKQKCLAAIGSIFGKC[Nle]NKKCKCYPR-OH; disulfide 3-24, 9-29, 13-31)	0.31		≤ 1	0.9
CC[C@H](C)[C@@H]1NC(=O)[C@H](C)NC(=O)[C@H](C)NC(=O)[C@H](CC(C)C)NC(=O)[C@@H]2CSSC[C@@H](C(=O)N[C@@H](Cc3ccc(O)cc3)C(=O)N3CCC[C@H]3C(=O)N[C@@H](CCCNC(=N)N)C(=O)O)NC(=O)[C@H](CCCCN)NC(=O)[C@@H]3CSSC[C@H](NC(=O)[C@H](CCC(=O)O)NC(=O)[C@H](C(C)C)NC(=O)[C@H](CO)NC(=O)[C@H](C)NC(=O)[C@H](CO)NC(=O)[C@@H](NC(=O)[C@H](CCCNC(=N)N)NC(=O)[C@H](CC(C)C)NC(C)=O)CSSC[C@H](NC(=O)[C@H](CCCCN)NC(=O)CNC(=O)[C@H](Cc4ccccc4)NC(=O)[C@H]([C@@H](C)CC)NC(=O)[C@H](CO)NC(=O)CNC1=O)C(=O)N[C@@H](CCSC)C(=O)N[C@@H](CC(N)=O)C(=O)N[C@@H](CCCCN)C(=O)N[C@@H](CCCCN)C(=O)N3)C(=O)N[C@@H](CCCCN)C(=O)N[C@@H](CCC(N)=O)C(=O)N[C@@H](CCCCN)C(=O)N2 [Compound 116] (Ac-LRCSASVECKQKCLAAIGSIFGKCMNKKCKCYPR-OH; disulfide 3-24, 9-29, 13-31)	0.18		≤ 1	0.36
